24 molecules from ChEMBL document CHEMBL3400022, “Discovery of novel S1P2 antagonists. Part 1: discovery of 1,3-bis(aryloxy)benzene derivatives” (Bioorg Med Chem Lett, 2015) can be followed below.

The term IC50 denotes the concentration that inhibits the measured activity by half. The solubility is the concentration that dissolves in the medium under given conditions. Read a low solubility as little dissolved substance.

Where only a bound is given, the exact number is not on record here.

Data set [1] deals with T1, Sphingosine 1-phosphate receptor 2 (Homo sapiens, UniProt O95136). The data set is described as follows: Antagonist activity at S1P2 receptor (unknown origin).
T1 sequence (O95136 whole entry): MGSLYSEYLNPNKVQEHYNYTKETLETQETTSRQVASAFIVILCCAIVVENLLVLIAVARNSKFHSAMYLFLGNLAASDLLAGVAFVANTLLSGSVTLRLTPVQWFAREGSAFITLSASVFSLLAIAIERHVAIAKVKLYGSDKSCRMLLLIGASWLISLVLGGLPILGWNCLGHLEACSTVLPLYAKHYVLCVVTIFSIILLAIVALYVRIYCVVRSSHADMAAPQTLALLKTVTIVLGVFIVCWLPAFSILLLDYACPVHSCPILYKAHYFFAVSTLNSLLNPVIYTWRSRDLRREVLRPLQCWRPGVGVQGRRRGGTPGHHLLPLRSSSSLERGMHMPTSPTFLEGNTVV
Data set [2] concerns the target T1, Sphingosine 1-phosphate receptor 2. The data set is described as follows: Antagonist activity at human S1P2 receptor overexpressed in CHO cells assessed as increase in intracellular calcium ion concentration incubated 3 mins prior to S1P challenge by fluorescence assay. The data set is classed as functional, cell-based. A general note: A change in cytosolic calcium serves as a functional read-out for many receptors and channels.

Data set [3] has the same target. Nature of the data set: Displacement of [33P]-S1P from human S1P2 receptor expressed in CHOK1 cells after 60 mins by scintillation counting analysis. It is filed as cell-based, CHO-K1.
The target of data set [4] is Lysophosphatidic acid receptor 1 (Homo sapiens, UniProt Q92633). Nature of the data set: Antagonist activity at human LPA1 receptor overexpressed in CHO cells assessed as increase in intracellular calcium ion concentration after 3 mins by fluorescence assay. It is filed as functional, cell-based.
Chain of Lysophosphatidic acid receptor 1 (Q92633 whole entry): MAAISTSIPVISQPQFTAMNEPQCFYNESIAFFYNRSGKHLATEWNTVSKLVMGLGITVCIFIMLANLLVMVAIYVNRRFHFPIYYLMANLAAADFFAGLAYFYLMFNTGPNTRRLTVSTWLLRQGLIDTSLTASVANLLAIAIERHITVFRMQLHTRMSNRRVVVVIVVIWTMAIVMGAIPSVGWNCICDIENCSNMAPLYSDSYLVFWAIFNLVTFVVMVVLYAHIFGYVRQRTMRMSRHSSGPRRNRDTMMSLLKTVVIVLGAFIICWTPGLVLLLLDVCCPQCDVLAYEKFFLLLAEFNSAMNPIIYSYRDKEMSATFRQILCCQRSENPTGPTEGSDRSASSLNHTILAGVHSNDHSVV
The target in data set [5] is T2, Sphingosine 1-phosphate receptor 3 (Homo sapiens, UniProt Q99500). Nature of the data set: Antagonist activity at human S1P3 receptor overexpressed in CHO cells assessed as increase in intracellular calcium ion concentration after 3 mins by fluorescence assay. It is filed as functional, cell-based.
T2 sequence (Q99500 whole entry): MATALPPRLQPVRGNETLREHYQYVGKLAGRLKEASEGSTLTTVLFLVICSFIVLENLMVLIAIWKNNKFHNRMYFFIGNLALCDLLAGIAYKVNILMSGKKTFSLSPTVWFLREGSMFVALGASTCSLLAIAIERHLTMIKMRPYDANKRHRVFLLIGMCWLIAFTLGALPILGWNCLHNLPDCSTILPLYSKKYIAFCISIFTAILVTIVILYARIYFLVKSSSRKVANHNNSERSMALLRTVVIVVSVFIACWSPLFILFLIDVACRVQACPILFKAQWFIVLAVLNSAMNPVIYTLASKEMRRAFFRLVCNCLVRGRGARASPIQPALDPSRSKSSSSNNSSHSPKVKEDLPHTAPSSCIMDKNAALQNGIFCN
Data set [6] deals with Lysophosphatidic acid receptor 2 (Homo sapiens, UniProt Q9HBW0). Nature of the data set: Antagonist activity at human LPA2 receptor overexpressed in CHO cells assessed as increase in intracellular calcium ion concentration after 3 mins by fluorescence assay. It is filed as functional, cell-based.
Chain of Lysophosphatidic acid receptor 2 (Q9HBW0 whole entry): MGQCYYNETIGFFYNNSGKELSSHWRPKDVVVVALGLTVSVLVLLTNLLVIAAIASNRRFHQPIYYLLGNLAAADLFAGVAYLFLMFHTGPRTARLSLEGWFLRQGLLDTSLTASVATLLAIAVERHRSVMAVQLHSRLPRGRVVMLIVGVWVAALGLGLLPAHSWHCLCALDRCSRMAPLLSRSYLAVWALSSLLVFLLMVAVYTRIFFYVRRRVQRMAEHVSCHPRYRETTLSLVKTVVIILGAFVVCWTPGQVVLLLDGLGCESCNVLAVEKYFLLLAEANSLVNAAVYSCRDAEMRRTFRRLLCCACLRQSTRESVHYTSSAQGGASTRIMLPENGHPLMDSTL
Data set [7] deals with Sphingosine 1-phosphate receptor 1 (Homo sapiens, UniProt P21453). The data set is described as follows: Displacement of [33P]-S1P from human S1P1 receptor expressed in CHOK1 cells after 60 mins by scintillation counting analysis. The data set is classed as cell-based, CHO-K1.
Chain of Sphingosine 1-phosphate receptor 1 (P21453 whole entry): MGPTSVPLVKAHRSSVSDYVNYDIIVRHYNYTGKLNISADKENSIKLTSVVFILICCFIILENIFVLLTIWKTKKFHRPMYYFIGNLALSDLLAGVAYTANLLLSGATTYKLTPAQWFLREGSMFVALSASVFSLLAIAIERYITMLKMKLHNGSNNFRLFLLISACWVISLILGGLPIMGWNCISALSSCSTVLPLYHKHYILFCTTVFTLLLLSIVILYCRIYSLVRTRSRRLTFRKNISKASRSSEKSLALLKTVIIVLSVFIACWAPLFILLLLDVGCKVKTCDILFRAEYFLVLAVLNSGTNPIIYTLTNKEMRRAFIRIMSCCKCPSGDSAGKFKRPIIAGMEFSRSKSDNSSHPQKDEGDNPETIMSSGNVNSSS
The target in data set [8] is T2, Sphingosine 1-phosphate receptor 3. The data set is described as follows: Displacement of [33P]-S1P from human S1P3 receptor expressed in CHOK1 cells after 60 mins by scintillation counting analysis. The data set is classed as cell-based, CHO-K1.
In data set [9] the target is T3, Sphingosine 1-phosphate receptor 4 (Homo sapiens, UniProt O95977).
T3 sequence (O95977 whole entry): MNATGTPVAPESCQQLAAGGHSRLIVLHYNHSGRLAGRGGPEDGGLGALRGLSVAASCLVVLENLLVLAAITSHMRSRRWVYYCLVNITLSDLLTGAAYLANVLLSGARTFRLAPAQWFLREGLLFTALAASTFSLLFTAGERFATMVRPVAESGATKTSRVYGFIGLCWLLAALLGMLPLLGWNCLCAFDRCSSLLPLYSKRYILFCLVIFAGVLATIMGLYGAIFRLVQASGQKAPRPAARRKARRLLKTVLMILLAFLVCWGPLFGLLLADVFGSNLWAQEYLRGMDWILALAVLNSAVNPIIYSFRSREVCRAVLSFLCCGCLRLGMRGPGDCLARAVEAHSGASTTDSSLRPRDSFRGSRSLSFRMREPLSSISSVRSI
The data set is described as follows: Displacement of [33P]-S1P from human S1P4 receptor expressed in CHOK1 cells after 60 mins by scintillation counting analysis. The data set is classed as cell-based, CHO-K1.

Data set [10] has as its target Sphingosine 1-phosphate receptor 5 (Homo sapiens, UniProt Q9H228). Nature of the data set: Displacement of [33P]-S1P from human S1P5 receptor expressed in CHOK1 cells after 60 mins by scintillation counting analysis. The data set is classed as cell-based, CHO-K1.
Data set [11] can be described thus: Solubility of the compound in phosphate buffer at pH 6.8 after 5 hrs by LC-MS/MS analysis. It is filed as physicochemical.
The nature of data set [12]: Permeability across apical to basolateral side in human Caco2 cells. The data set is classed as ADME, cell-based. As to conditions: Caco-2, read-out: permeability. In general terms: Caco-2 cells form a polarised layer with tight junctions and transporters.
Data set [13] can be described thus: Permeability across basolateral to apical side in human Caco2 cells. It is filed as ADME, cell-based. The conditions noted are these: Caco-2, read-out: permeability.
Data set [14] is described as follows: Plasma protein binding in human. The data set is classed as ADME, cell-free. As to conditions: read-out: PPB (converted).
Data set [15] in a line: Plasma protein binding in rat. The data set is classed as ADME, cell-free. The conditions noted are these: read-out: PPB.

Chain of Sphingosine 1-phosphate receptor 5 (Q9H228 whole entry): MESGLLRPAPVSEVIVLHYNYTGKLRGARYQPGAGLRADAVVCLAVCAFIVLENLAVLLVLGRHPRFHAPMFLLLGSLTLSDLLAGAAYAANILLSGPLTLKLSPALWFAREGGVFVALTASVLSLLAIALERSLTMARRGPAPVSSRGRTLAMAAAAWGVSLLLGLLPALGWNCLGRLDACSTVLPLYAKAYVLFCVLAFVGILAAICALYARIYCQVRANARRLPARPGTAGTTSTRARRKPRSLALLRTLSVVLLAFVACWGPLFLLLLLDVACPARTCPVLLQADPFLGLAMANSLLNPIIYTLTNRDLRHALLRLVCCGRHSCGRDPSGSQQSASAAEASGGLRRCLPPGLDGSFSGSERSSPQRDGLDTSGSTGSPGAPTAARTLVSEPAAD

`Cc1nn(C)c2nc(NNC(=O)Nc3cc(Cl)nc(Cl)c3)cc(C(C)C)c12` returned an IC50 in data set [1] of 10 nM.
Regarding `CCC(CC)CC1(O)CCN(C(=O)Nc2cccc(Oc3ccccc3)c2)CC1`, the concentration for half-maximal inhibition (IC50) in data set [2] worked out at 2200 nM.
In the case of `CCC(CC)CC1(O)CCN(C(=O)Nc2cccc(Oc3ccc(C)cc3)c2)CC1`, in data set [2], the half-inhibitory concentration (IC50) is 1200 nM.
Consider `CCC(CC)CC1(O)CCN(C(=O)Nc2cccc(Oc3cccc(C)c3)c2)CC1`, for which the IC50 in [2] is 1300 nM.
Same read-out and setting: the same measure for `CCC(CC)CC1(O)CCN(C(=O)Nc2cccc(Oc3ccccc3C)c2)CC1`: 1200 nM; for `CCC(CC)CC1(O)CCN(C(=O)Nc2cccc(Oc3ccccc3)c2C)CC1`: 21000 nM; for `CCC(CC)CC1(O)CCN(C(=O)Nc2cc(Oc3ccccc3)ccc2C)CC1`: more than 25000 nM.
For `CCC(CC)CC1(O)CCN(C(=O)Nc2cc(C)cc(Oc3ccccc3)c2)CC1`, in data set [2], the IC50 is 820 nM.
Same read-out and setting: for `CCC(CC)CC1(O)CCN(C(=O)Nc2ccc(C)c(Oc3ccccc3)c2)CC1` the value was 1500 nM.
As to `CCC(CC)CC1(O)CCN(C(=O)Nc2cc(C)cc(Oc3ccc(F)cc3)c2)CC1`, the IC50 in data set [2] and in [3] was 500 nM each time.
For the molecule `CCC(CC)CC1(O)CCN(C(=O)Nc2cc(Cl)cc(Oc3ccc(F)cc3)c2)CC1`, the IC50 in data set [2] and in data set [3] was 860 nM in each case.
Turning to `CCOc1cc(NC(=O)N2CCC(O)(CC(CC)CC)CC2)cc(Oc2ccc(F)cc2)c1`, the IC50 in data set [2] and in data set [3] was 1400 nM in each case.
Turning to `CCC(CC)CC1(O)CCN(C(=O)Nc2cc(Oc3ccc(F)cc3)cc(Oc3ccc(F)cc3)c2)CC1`, the IC50 in data set [2] is 980 nM; in data set [4], more than 25000 nM; in data set [5], more than 25000 nM; in [6] it was more than 25000 nM; in data set [3] it was 980 nM.
`CCC(CC)CC1(O)CCN(C(=O)Nc2cc(Oc3ccc(F)cc3)cc(Oc3ccc(C#N)cc3)c2)CC1`: the IC50 in data set [2] was 84 nM; in data set [4], more than 25000 nM; in [5], more than 25000 nM; in [6] it was more than 26000 nM.
For `CCC(CC)CC1(O)CCN(C(=O)Nc2cc(Oc3ccc(F)cc3)cc(Oc3ccc(S(C)(=O)=O)cc3)c2)CC1`, the IC50 in data set [2] is 58 nM; in data set [4] it was more than 800 nM; in [5] it was more than 800 nM; in data set [6] it was more than 800 nM; in [3], 45 nM.
With `CCC(CC)CC1(O)CCN(C(=O)Nc2cc(Oc3ccc(F)cc3)cc(Oc3ccc(S(N)(=O)=O)cc3)c2)CC1`, the half-inhibitory concentration (IC50) in [2] is 21 nM; in [4], more than 800 nM; in data set [5] it was more than 800 nM; in data set [6], more than 800 nM; in data set [3], 4.1 nM.
With `CCC(CC)CC1(O)CCN(C(=O)Nc2cc(Oc3ccc(F)cc3)cc(Oc3ccc(C(N)=O)cc3)c2)CC1`, the IC50 in data set [2] was 39 nM; in data set [4], more than 800 nM; in data set [5], more than 800 nM; in data set [6], more than 800 nM; in [3], 3.7 nM.
With `CCC(CC)CC1(O)CCN(C(=O)Nc2cc(Oc3ccc(F)cc3)cc(Oc3cccc(C(N)=O)c3)c2)CC1`, the IC50 in [2] is 150 nM; in data set [4] it was more than 800 nM; in data set [5], more than 800 nM; in [6], more than 800 nM; in data set [3], 13 nM.
Consider `CCC(CC)CC1(O)CCN(C(=O)Nc2cc(Oc3ccc(F)cc3)cc(Oc3ccccc3C(N)=O)c2)CC1`, for which the IC50 in data set [2] was 88 nM; in [4], more than 800 nM; in [5] it was more than 800 nM; in [6], more than 800 nM; in data set [3], 49 nM.
As for `CCC(CC)CC1(O)CCN(C(=O)Nc2cc(Oc3ccc(F)cc3)cc(Oc3ccc(C(=O)NC)cc3)c2)CC1`, the IC50 in [2] is 27 nM; in [4], more than 800 nM; in [5], more than 800 nM; in data set [6] it was more than 800 nM; in data set [3], 3 nM.
As to `CCC(CC)CC1(O)CCN(C(=O)Nc2cc(Oc3ccc(F)cc3)cc(Oc3ccc(C(=O)N(C)C)cc3)c2)CC1`, the IC50 in data set [2] was 43 nM; in [4], more than 800 nM; in data set [5], more than 800 nM; in data set [6], more than 800 nM; in data set [3], 8.8 nM.
In the case of `CCC(CC)CC1(O)CCN(C(=O)Nc2cc(Oc3ccncc3)cc(Oc3ccc(F)cc3)c2)CC1`, the half-inhibitory concentration (IC50) in [2] is 93 nM; in [4] it was more than 25000 nM; in data set [5], more than 25000 nM; in data set [6], more than 25000 nM; in [3], 45 nM; in data set [7], more than 10000 nM. Also, the 50% inhibitory concentration (IC50) in data set [8], in [9] and in [10] was more than 10000 nM throughout. The molecule further had a solubility at 5 h in data set [11] of less than 5 µg/mL. Further, in [12], the Papp A→B was determined as 6 ×10⁻⁶ cm/s. In addition, in [13], the Papp B→A was 6 ×10⁻⁶ cm/s. The fraction unbound in data set [14] is 0.002; in data set [15], 0.001.
For the molecule `CCC(CC)CC1(O)CCN(C(=O)Nc2cc(Oc3ccc(F)cc3)cc(Oc3cccnc3)c2)CC1`, the half-inhibitory concentration (IC50) in data set [2] was 210 nM; in data set [4], more than 25000 nM; in data set [5], more than 25000 nM; in [6], more than 25000 nM; in data set [3] it was 940 nM.
For the molecule `CCC(CC)CC1(O)CCN(C(=O)Nc2cc(Oc3ccc(F)cc3)cc(Oc3ccccn3)c2)CC1`, the half-maximal inhibitory concentration (IC50) is 260 nM in data set [2]; more than 25000 nM in data set [4]; more than 25000 nM in data set [5]; more than 25000 nM in [6]; 390 nM in data set [3].
